Results reported in US10829473B2, “Modulators of the cystic fibrosis transmembrane conductance regulator protein and methods of use” (AbbVie Overseas S.Á.R.L., priority 2017, dated 2020).
Read-outs that look alike come from different tables or passages of the source. Marks after values point to notes of the source that are not given here.

Target: T1, F508delCFTR (Homo sapiens, UniProt P13569, DEL508-508)
T1 construct: expressed in transfected cells; host or cells: CFBE41o- human lung derived epithelial cells (CFBE41o-F508delCFTR-HRP), doxycycline-inducible
Test: Cell Surface Expression-Horse Radish Peroxidase (CSE-HRP) Assay;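 for EC50 (with co-corrector): co-corrector chromenyl benzoic acid corrector at 2 or 3 µM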;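 for Maximum % activity (without co-corrector): % of on-plate positive control chromenyl benzoic acid corrector at 2 or 3 µM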
Type: cell-based
Conditions: for Maximum % activity (with co-corrector) / Emax: maximum at any tested concentration; for Emax: read-out: Maximum % activity (without co-corrector)
In short: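 Corrector compounds were given as 8-point 3-fold series from 20 or 30 μM, with or without a 2 μM co-corrector, for 18-24 h at 33 °C. Surface HRP was read by luminol luminescence as % of positive control; variable-Hill-slope sigmoidal fitting gave EC50 from triplicate plates.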

[1] = test compound alone, without co-corrector, read-out: EC50 (without co-corrector)
[2] = with co-corrector, read-out: EC50 (with co-corrector)
[3] = test compound with co-corrector
[4] = test compound with co-corrector, read-out: EC50 (with co-corrector)
[5] = test compound without co-corrector
[6] = test compound without co-corrector, read-out: EC50 (without co-corrector)

T1 sequence (P13569 with tags, fused parts or gaps DEL508-508): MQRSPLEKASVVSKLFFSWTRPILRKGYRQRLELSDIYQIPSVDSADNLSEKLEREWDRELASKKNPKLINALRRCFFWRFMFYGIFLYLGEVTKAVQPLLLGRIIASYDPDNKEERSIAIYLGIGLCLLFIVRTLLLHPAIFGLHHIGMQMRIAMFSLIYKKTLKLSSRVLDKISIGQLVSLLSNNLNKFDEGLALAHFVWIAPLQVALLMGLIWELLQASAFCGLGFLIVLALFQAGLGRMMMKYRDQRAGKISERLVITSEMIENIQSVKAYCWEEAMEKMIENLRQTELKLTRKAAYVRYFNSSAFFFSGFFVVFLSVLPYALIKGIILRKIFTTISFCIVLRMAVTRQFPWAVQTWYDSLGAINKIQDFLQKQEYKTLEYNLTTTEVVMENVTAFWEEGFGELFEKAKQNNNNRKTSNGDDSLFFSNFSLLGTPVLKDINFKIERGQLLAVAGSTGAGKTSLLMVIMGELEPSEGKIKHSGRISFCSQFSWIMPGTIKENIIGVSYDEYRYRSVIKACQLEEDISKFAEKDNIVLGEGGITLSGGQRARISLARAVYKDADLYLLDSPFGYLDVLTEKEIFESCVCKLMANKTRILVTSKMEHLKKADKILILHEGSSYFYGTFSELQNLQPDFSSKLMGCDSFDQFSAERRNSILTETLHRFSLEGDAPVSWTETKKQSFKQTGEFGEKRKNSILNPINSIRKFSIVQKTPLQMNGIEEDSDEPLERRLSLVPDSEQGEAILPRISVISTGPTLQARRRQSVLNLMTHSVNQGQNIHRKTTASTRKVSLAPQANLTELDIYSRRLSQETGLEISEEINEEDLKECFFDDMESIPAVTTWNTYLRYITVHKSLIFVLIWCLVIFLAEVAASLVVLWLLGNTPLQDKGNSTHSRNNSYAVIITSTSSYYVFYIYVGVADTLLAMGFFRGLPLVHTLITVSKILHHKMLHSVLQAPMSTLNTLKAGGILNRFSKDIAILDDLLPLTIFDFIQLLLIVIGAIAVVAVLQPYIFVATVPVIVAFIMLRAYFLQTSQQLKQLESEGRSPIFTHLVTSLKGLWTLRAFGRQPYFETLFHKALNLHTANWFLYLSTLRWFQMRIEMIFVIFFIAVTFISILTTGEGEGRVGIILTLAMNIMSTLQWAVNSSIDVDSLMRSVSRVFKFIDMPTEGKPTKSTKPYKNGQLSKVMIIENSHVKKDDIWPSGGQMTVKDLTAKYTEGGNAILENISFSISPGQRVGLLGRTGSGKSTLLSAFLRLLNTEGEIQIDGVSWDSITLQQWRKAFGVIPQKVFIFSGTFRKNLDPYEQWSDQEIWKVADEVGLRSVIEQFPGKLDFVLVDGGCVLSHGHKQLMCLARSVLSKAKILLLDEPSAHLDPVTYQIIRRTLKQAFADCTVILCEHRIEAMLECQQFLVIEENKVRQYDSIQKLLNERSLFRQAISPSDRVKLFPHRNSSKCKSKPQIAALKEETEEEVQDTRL

EC50 [1] [µM] | Maximum % activity (with co-corrector) (with co-corrector) | EC50 [2] [µM] | Emax (without co-corrector) [%] | Maximum % activity (with co-corrector) [3] | EC50 [4] [µM] | Emax [5] [%] | EC50 [6] [µM] | EC50 (with co-corrector) [3] | EC50 (without co-corrector) [5] | Structure (SMILES)
< 3 | +++ (≥350) | < 3 | > 150 | – | – | – | – | – | – | COc1cccc(OCC2CC2)c1C1(C(=O)NS(=O)(=O)c2cccc3ncccc23)CC1 [Example I-46, 1-[2-(cyclopropylmethoxy)-6-methoxyphenyl]-N-(quinoline-5-sulfonyl)cyclopropane-1-carboxamide]
3 to 10 | +++ (≥350) | 3 to 10 | > 150 | – | – | – | – | – | – | Cc1ccc(OC2COC2)c(C2(C(=O)NS(=O)(=O)c3cccc4nc(N)ccc34)CC2)c1 [II-90]
– | – | – | – | +++ (≥350) | < 3 | > 150 | < 3 | – | – | Cc1ccc2c(S(=O)(=O)NC(=O)C3(c4cc(C5CCC5)cnc4OCC4CC4)CC3)cccc2n1 [Example GI-110, 1-[5-cyclobutyl-2-(cyclopropylmethoxy)pyridin-3-yl]-N-(2-methylquinoline-5-sulfonyl)cyclopropane-1-carboxamide]
– | – | – | – | +++ (≥350) | < 3 | > 150 | < 3 | – | – | Cc1ccc(C2(C(=O)NS(=O)(=O)c3cccc4[nH]ccc34)CC2)c(OC(C)C)n1 [Example GI-82, N-(1H-indole-4-sulfonyl)-1-{6-methyl-2-[(propan-2-yl)oxy]pyridin-3-yl}cyclopropane-1-carboxamide]
< 3 | +++ (≥350) | < 3 | > 150 | – | – | – | – | – | – | COc1ccc(C(C)(C)OC)cc1C1(C(=O)NS(=O)(=O)c2cccc3ncccc23)CC1 [Example I-52, 1-[2-methoxy-5-(2-methoxypropan-2-yl)phenyl]-N-(quinoline-5-sulfonyl)cyclopropane-1-carboxamide]
< 3 | +++ (≥350) | < 3 | > 150 | – | – | – | – | – | – | O=C(NS(=O)(=O)c1cccc2ncccc12)C1(c2cc(OC(F)(F)F)ccc2Cl)CC1 [II-24]
3 to 10 | +++ (≥350) | < 3 | > 150 | – | – | – | – | – | – | COc1ncc(C2CCC2)cc1C1(C(=O)NS(=O)(=O)c2cccc3ncn(C)c23)CC1 [II-12]
< 3 | +++ (≥350) | < 3 | > 150 | – | – | – | – | – | – | Cc1ccc(O[C@H]2CCOC2)c(C2(C(=O)NS(=O)(=O)c3cccc4nc(C)ccc34)CC2)c1 [Example I-124, 1-(5-methyl-2-{[(3S)-oxolan-3-yl]oxy}phenyl)-N-(2-methylquinoline-5-sulfonyl)cyclopropane-1-carboxamide]
< 3 | +++ (≥350) | < 3 | > 150 | – | – | – | – | – | – | CCc1ccc(OC)c(C2(C(=O)NS(=O)(=O)c3cccc4[nH]ncc34)CC2)c1 [II-72]
< 3 | +++ (≥350) | < 3 | > 150 | – | – | – | – | – | – | COc1ccc(C(C)(C)OC)cc1C1(C(=O)NS(=O)(=O)c2cccc3nc(C)ccc23)CC1 [II-99]
< 3 | +++ (≥350) | < 3 | > 150 | – | – | – | – | – | – | COc1ccc(C2CCC2)cc1C1(C(=O)NS(=O)(=O)c2cccn3nccc23)CC1 [Example I-61, 1-(5-cyclobutyl-2-methoxyphenyl)-N-(pyrazolo[1,5-a]pyridine-4-sulfonyl)cyclopropane-1-carboxamide]
< 3 | +++ (≥350) | < 3 | > 150 | – | – | – | – | – | – | COc1cc(C2CCC2)cc(OC)c1C1(C(=O)NS(=O)(=O)c2cccc3[nH]ccc23)CC1 [Example I-86, 1-(4-cyclobutyl-2,6-dimethoxyphenyl)-N-(1H-indole-4-sulfonyl)cyclopropane-1-carboxamide]
– | – | – | – | ++ (≥150 and <350) | – | 50 to 150 | – | ++^a | ++^a | COc1cc(C)c(C2(C(=O)NS(=O)(=O)c3cccc4c3CCCN4)CC2)cn1 [GIII-17]
< 3 | +++ (≥350) | < 3 | > 150 | – | – | – | – | – | – | CCc1ccc(O[C@@H]2CCOC2)c(C2(C(=O)NS(=O)(=O)c3cccc4nc(C)ccc34)CC2)c1 [Example I-119, 1-(5-ethyl-2-{[(3R)-oxolan-3-yl]oxy}phenyl)-N-(2-methylquinoline-5-sulfonyl)cyclopropane-1-carboxamide]
< 3 | +++ (≥350) | < 3 | > 150 | – | – | – | – | – | – | CCOc1ccc(C(C)(C)OCC)cc1C1(C(=O)NS(=O)(=O)c2cccc3ncccc23)CC1 [Example I-99, 1-[2-ethoxy-5-(2-ethoxypropan-2-yl)phenyl]-N-(quinoline-5-sulfonyl)cyclopropane-1-carboxamide]
< 3 | +++ (≥350) | < 3 | > 150 | – | – | – | – | – | – | COc1ccc(C(C)(C)C)cc1C1(C(=O)NS(=O)(=O)c2cccc3ncccc23)CC1 [Example I-34, 1-(5-tert-butyl-2-methoxyphenyl)-N-(quinoline-5-sulfonyl)cyclopropane-1-carboxamide]
– | – | – | – | +++ (≥350) | < 3 | > 150 | < 3 | – | – | COCC1CCN(c2ncc(C3CCC3)cc2C2(C(=O)NS(=O)(=O)c3cccc4[nH]ccc34)CC2)CC1 [Example GI-118, 1-{5-cyclobutyl-2-[4-(methoxymethyl)piperidin-1-yl]pyridin-3-yl}-N-(1H-indole-4-sulfonyl)cyclopropane-1-carboxamide]
< 3 | +++ (≥350) | < 3 | > 150 | – | – | – | – | – | – | O=C(NS(=O)(=O)c1cccc2ncccc12)C1(c2ccc(C(F)(F)F)nc2N2CCCC2)CC1 [Example GI-15, 1-[2-(pyrrolidin-1-yl)-6-(trifluoromethyl)pyridin-3-yl]-N-(quinoline-5-sulfonyl)cyclopropane-1-carboxamide]
3 to 10 | ++ (≥150 and <350) | 3 to 10 | < 50 | – | – | – | – | – | – | Cc1ccccc1S(=O)(=O)NC(=O)C1(c2ccc(Cl)cc2)CC1 [Example III-88, 1-(4-chlorophenyl)-N-(2-methylbenzene-1-sulfonyl)cyclopropane-1-carboxamide]
< 3 | +++ (≥350) | < 3 | > 150 | – | – | – | – | – | – | CCc1cnc(OCC(C)C)c(C2(C(=O)NS(=O)(=O)c3cccc4[nH]ncc34)CC2)c1 [Example I-94, 1-[5-ethyl-2-(2-methylpropoxy)pyridin-3-yl]-N-(1H-indazole-4-sulfonyl)cyclopropane-1-carboxamide]
3 to 10 | +++ (≥350) | < 3 | > 150 | – | – | – | – | – | – | O=C(NS(=O)(=O)c1cccc2c1CCCN2)C1(c2cc(OC(F)(F)F)ccc2Cl)CC1 [II-25]

Structure (SMILES) | EC50 [1] [µM] | Maximum % activity (with co-corrector) (with co-corrector) | EC50 [2] [µM] | Emax (without co-corrector) [%] | Maximum % activity (with co-corrector) [3] | EC50 [4] [µM] | Emax [5] [%] | EC50 [6] [µM] | EC50 (with co-corrector) [3] | EC50 (without co-corrector) [5]
COc1ccc(C)c(C2(C(=O)NS(=O)(=O)c3cccc4ncccc34)CCN(C)CC2)c1 [Example III-94, 4-(5-methoxy-2-methylphenyl)-1-methyl-N-(quinoline-5-sulfonyl)piperidine-4-carboxamide] | > 10 | + (<150) | > 10 | < 50 | – | – | – | – | – | –
